Data from patent US20240327364A1, “THERAPEUTIC TARGETING OF GPR68 TO INDUCE FERROPTOSIS” (University Of Maryland, Baltimore, priority 2023, published 2024).

Experiments:
WM-115 = test: Cell Titer-Glo viability, Melanoma; type: cell-based
Protocol: OGM2 kills wide variety of cancer cell types. Cell sensitivity can be classified in to Very Sensitive (LC50<2 μM), Sensitive (LC50=2 to 10 μM), Mildly Sensitive (LC50>10 μM), and Refractory (no killing at 10 μM). The listed established cell were incubated with OGM2 at 2 μM or 10 μM for 72 hours under standard cell culture conditions, and relative cell number was assessed using Cell Titer-Glo Luminescent Cell Viability Assay (Promega™) following the manufacturer's instructions. Luminescence was determined using a Cytation 5 reader and Gen5 software package (BioTek™).
Cancer cells, which are very sensitive to killing by OGM2 (LCs <2 μM), with reported mRNA expression of GPR68 and the related proton sensing receptor GPR4. LC50's (concentrations causing 50% lethality) were determined using CellTiter-Glo (Promega™, G7570). Cells were plated in 12-well plates (CELLTREAT Scientific Products, 229112) in 1 ml of DMEM with high glucose, GlutaMAX, HEPES, or RPMI 1640 with Penicillin-Streptomycin (ThermoFisher™, 10564029, 11875119 and 15140122) and 10% FBS. Cells were incubated overnight at 37° C. in 5% CO2. Then 1 mL of fresh media was added with DMSO, OGM, or positive control (Erastin; APExBIO Technology, LLC, B1524) and cells incubated for 3 days. On the third day, all media was removed, cells were rinsed with 1×PBS, PBS was removed, and 200 μL of 1× Passive Lysis Buffer (Promega™, E1941) was added to each well. […]. Subsequently, 20 μL of lysate was added to 100 μL CellTiter-Glo™ reagent on a LUMITRAC 200 plate (Greiner™ bio-one, 82050-726). Plates were briefly spun down and read on a GloMax-Multi Detection System (Promega™).
The cells listed in the tables above were incubated with OGM2 at 2 μM or 10 μM for 72 hours under standard cell culture conditions, and relative cell number was assessed using Cell Titer-Glo Luminescent Cell Viability Assay (Promega™) following the manufacturer's instructions. Luminescence was determined using a Cytation 5 reader and Gen5 software package (BioTek™). RNA expression of GPR68 and GPR4 in the corresponding cancer cell lines are listed, according to the publicly available The Human Protein Atlas version 22.0 and Ensembl version 103.38 (see proteinatlas.org). The consensus normalized expression value (“nTPM”=normalize transcript per million) was calculated as the maximum nTPM value for each gene in the two data sources.

HEK293 = test: Liperfluo lipid peroxidation, HEK293; type: cell-based, human
Protocol: Cells were plated on a 100 mm cell culture dish (CELLTREAT Scientific Products) in 10 mls of DMEM with high glucose, GlutaMAX, HEPES, Penicillin-Streptomycin (ThermoFisher™) and 10% FBS. Cells were incubated overnight at 37° C. in 5% CO2. Media were then replaced with […] fresh media with DMSO, OGM2, or Erastin (APExBIO Technology™) and the cells incubated for 3 days. On the third day, 3 mL fresh media with 2.5 μM Liperfluo™ (Dojindo Molecular Technologies™, Inc.) resuspended in DMSO was added and cells were incubated at 37° C. in 5% CO2 for 1 hour. Cells were subsequently trypsinized for 5 minutes, pelleted by centrifugation, and resuspended in cell sorting media (1% BSA and 1 mM EDTA in PBS pH 7.4). Ten thousand events were recorded on a BD LSR II and the data processed using the FlowJo™ software.

HKSA-induced ALI = test: HKSA-induced acute lung injury; type: in vivo, C57Bl mice; conditions: OGM2 40 mg/kg
Protocol: FIG. 37A through FIG. 37D: OGM2 attenuates HKSA- and LPS-induced acute lung injury (ALI) in vivo. FIG. 37A: GPR68 mRNA is markedly elevated in lungs, heart and brain of HKSA-challenged (5×10^7/kg, i/n, 18 hr) C57Bl mice). FIG. 37B: LPS (0.7 mg/kg intratracheal) and […] ALI in mice markedly increases mRNA expression of GPR68, relative to GPR4, GPR65, and GPR132; *p<0.01 vs. vehicle; n=3.

CIT = CIT (Homo sapiens, UniProt O14578); test: KinomeScan; type: binding; conditions: read-out: % Control
CSNK2A1 = CSNK2A1 (Homo sapiens, UniProt P68400); test: KinomeScan; type: binding; conditions: read-out: % Control
[1] = target: T1, EGFR(L747-E749del, A750P) (Homo sapiens, UniProt P00533, A750P/DEL747-749); test: KinomeScan; type: binding; conditions: read-out: % Control
T1 construct: purchased DiscoveRx (Fremont, CA), KinomeScan service

MEK6 = target: T2, MEK6 (Homo sapiens, UniProt P52564); test: KinomeScan; type: binding; conditions: read-out: % Control
T2 construct: purchased DiscoveRx (Fremont, CA)

p38-delta = target: T3, p38-delta (Homo sapiens, UniProt O15264); test: KinomeScan; type: binding; conditions: read-out: % Control
T3 construct: purchased DiscoveRx

SIK2 = target: T4, SIK2 (Homo sapiens, UniProt Q9H0K1); test: KinomeScan; type: binding; conditions: read-out: % Control
T4 construct: purchased DiscoveRx (Fremont, CA)

SLK = target: T5, SLK (Homo sapiens, UniProt Q9H2G2); test: KinomeScan; type: binding; conditions: read-out: % Control
T5 construct: purchased DiscoveRx (Fremont, CA)

ADRB1 = target: T6, ADRB1 (Homo sapiens, UniProt P08588); test: GPCR Profiler; type: cell-based
T6 construct: host or cells: Chem-1 cells with promiscuous Gα15

CXCR6 = target: T7, CXCR6 (Homo sapiens, UniProt O00574); test: GPCR Profiler; type: cell-based
T7 construct: host or cells: Chem-1 cells with Gα15

FPR1 = target: T8, FPR1 (Homo sapiens, UniProt P21462); test: GPCR Profiler; type: cell-based
T8 construct: host or cells: Chem-1 cells expressing Gα15

MRGX1 = target: T9, MRGX1 (Homo sapiens, UniProt Q96LB2); test: GPCR Profiler; type: cell-based
T9 construct: host or cells: Chem-1 cells expressing Gα15

V2 = target: T10, V2 (Homo sapiens, UniProt P30518); test: GPCR Profiler; type: cell-based
T10 construct: host or cells: Chem-1 cells expressing Galpha15
T10 sequence (P30518 whole entry): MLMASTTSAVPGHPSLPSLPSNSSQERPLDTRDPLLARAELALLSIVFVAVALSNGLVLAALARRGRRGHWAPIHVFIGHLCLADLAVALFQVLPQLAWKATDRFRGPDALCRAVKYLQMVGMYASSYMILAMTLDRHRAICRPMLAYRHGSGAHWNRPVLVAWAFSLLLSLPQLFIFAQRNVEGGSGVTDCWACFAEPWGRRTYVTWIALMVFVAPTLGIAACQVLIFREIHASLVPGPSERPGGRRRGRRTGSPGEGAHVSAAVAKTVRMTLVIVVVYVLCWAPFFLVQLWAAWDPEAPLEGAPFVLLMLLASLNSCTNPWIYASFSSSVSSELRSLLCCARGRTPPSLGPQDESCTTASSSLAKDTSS

T9 sequence (Q96LB2 whole entry, species assumed): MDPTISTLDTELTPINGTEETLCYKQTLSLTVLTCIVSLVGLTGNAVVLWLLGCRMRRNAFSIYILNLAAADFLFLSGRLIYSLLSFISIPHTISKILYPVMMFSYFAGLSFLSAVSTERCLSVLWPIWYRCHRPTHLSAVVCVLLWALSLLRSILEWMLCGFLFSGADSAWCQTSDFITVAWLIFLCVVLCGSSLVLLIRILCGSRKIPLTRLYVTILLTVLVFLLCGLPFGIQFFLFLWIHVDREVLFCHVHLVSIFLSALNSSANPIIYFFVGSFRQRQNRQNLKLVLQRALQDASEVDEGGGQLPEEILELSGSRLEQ
T6 sequence (P08588 whole entry, species assumed): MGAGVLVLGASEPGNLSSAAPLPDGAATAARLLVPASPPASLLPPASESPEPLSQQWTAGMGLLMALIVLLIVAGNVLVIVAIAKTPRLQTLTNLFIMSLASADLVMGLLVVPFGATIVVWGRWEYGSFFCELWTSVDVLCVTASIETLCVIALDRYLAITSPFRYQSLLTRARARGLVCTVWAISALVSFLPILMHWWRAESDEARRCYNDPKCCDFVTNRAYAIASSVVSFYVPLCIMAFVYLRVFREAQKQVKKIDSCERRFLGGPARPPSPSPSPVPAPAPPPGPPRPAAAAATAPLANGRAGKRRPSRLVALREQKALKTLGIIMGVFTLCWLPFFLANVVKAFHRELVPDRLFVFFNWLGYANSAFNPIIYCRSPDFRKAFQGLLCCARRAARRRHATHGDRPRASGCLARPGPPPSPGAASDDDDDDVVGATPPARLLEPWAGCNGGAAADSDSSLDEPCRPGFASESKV
T7 sequence (O00574 whole entry, species assumed): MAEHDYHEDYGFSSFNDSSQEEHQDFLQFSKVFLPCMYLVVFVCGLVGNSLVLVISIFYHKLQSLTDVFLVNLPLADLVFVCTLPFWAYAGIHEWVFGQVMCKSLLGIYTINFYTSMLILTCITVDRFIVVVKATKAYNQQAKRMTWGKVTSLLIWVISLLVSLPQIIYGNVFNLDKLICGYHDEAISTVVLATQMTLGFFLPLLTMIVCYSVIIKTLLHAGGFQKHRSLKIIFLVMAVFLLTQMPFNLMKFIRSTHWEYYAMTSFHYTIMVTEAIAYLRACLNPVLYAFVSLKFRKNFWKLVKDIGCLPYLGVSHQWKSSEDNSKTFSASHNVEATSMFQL
T8 sequence (P21462 whole entry): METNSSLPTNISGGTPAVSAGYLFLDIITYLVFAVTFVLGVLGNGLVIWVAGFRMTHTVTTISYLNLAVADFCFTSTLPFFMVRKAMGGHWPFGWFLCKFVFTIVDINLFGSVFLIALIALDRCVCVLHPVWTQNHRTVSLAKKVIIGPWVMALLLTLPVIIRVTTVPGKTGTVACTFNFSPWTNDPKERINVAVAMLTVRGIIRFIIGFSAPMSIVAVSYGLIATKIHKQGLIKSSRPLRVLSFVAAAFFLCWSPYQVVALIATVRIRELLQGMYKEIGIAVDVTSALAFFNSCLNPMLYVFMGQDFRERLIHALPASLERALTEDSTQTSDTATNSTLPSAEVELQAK
T3 sequence (O15264 whole entry): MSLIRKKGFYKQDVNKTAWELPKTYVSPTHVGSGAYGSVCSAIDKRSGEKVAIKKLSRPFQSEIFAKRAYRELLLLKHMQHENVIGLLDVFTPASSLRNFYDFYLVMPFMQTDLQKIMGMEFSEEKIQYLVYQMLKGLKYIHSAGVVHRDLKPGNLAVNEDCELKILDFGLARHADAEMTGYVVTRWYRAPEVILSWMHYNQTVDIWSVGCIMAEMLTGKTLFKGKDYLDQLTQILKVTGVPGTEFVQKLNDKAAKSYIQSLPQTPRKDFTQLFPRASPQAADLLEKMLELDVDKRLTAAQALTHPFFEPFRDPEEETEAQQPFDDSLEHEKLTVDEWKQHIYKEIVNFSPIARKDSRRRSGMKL
T1 sequence (P00533 with tags, fused parts or gaps DEL747-749/A750P): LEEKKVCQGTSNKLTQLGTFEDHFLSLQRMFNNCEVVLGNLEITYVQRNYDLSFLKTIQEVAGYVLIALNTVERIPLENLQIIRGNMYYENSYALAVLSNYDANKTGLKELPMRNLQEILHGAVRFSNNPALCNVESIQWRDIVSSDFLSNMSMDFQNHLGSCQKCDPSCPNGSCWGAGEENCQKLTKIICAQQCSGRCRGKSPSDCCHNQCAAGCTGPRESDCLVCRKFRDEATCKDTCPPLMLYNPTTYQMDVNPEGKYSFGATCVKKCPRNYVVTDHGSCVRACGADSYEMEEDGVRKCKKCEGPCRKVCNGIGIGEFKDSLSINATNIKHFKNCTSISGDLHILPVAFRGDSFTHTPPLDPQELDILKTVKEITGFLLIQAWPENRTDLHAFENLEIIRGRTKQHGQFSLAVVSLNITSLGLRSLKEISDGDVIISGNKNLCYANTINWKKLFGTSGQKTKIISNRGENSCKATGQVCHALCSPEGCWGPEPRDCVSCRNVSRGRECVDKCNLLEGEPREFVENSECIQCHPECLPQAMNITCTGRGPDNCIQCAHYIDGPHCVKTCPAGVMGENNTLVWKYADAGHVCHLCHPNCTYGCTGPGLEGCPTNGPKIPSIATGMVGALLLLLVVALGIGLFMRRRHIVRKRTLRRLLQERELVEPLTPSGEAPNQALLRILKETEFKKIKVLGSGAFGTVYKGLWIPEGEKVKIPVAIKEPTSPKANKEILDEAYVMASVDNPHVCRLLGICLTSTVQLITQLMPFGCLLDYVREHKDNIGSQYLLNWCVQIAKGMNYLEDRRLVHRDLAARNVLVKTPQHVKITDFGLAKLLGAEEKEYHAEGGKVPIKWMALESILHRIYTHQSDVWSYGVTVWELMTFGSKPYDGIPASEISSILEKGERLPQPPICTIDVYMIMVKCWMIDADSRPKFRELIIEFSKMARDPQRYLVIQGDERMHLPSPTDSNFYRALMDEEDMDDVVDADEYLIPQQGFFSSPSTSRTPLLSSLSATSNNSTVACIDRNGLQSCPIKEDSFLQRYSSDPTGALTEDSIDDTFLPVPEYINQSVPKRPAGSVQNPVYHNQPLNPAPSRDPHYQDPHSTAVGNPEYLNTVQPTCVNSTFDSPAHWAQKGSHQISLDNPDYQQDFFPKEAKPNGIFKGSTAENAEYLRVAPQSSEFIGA
T2 sequence (P52564 whole entry): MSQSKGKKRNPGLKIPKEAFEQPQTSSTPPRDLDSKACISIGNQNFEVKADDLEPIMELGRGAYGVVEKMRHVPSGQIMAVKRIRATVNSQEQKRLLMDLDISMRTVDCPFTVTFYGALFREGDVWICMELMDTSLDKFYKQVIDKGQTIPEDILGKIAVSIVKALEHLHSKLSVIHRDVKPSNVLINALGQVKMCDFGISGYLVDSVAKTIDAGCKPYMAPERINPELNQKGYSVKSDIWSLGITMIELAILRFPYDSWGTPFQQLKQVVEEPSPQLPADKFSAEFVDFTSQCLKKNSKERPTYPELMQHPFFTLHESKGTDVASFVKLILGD
CSNK2A1, sequence (P68400 whole entry): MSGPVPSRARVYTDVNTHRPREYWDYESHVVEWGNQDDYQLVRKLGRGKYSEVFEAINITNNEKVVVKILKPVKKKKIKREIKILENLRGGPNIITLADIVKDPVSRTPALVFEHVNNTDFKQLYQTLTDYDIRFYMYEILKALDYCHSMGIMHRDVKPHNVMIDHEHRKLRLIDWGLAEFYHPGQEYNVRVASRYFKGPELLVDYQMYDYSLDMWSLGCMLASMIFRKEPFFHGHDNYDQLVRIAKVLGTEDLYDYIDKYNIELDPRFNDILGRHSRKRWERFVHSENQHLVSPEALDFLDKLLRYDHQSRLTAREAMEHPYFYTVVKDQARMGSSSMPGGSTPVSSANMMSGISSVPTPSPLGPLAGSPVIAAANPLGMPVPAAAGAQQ

Compound: CCc1ccc2c(c1)C1(NN=C(c3ccccc3)S1)C(=O)N2 (stereo not drawn) [OGM2]
- Class (WM-115): Sensitive (Sensitive (LC50=2 to 10 μM))
- % Survival 2 μM OGM (WM-115; 72 hours): 92.9%
- % Survival 10 μM OGM (WM-115; 72 hours): 40.7%
- CC50 (WM-115; Homo sapiens, WM-115, 72 hours, read-out: LC50 (the source's name)): 2 to 10 µM
- lipid peroxidation (HEK293): did not induce lipid peroxidation
- lung vascular leak (Evans blue-labeled albumin) (HKSA-induced ALI; 3 hr post administration): significantly attenuated
- inflammatory cytokine (TNFα, IL-6, KC, IL-1β) transcripts in the lungs (HKSA-induced ALI; i.p.): significantly attenuated induction

Compound: CCc1ccc2c(c1)C1(NN=C(c3cccc4ccccc34)S1)C(=O)N2 (stereo not drawn) [OGM1, 5-ethyl-5′-naphthalen-1-ylspiro[1H-indole-3,2′-3H-1,3,4-thiadiazole]-2-one]
- remaining binding at 10 µM (CIT): 94%
- remaining binding at 10 µM (CSNK2A1): 96%
- remaining binding at 10 µM [1]: 91%
- remaining binding at 10 µM (MEK6): 76%
- remaining binding at 10 µM (p38-delta): 81%
- remaining binding at 10 µM (SIK2): 100%
- remaining binding at 10 µM (SLK): 90%
- Antagonism (ADRB1; 10 uM): −9.6
- Agonism (ADRB1; 12.5 uM): −1.3
- Antagonism (CXCR6; 10 uM): −14
- Agonism (CXCR6; 12.5 uM): 0
- Antagonism (FPR1; 10 uM): 14.3
- Agonism (FPR1; 12.5 uM): −0.2
- Antagonism (MRGX1; 10 uM): 2.3
- Agonism (MRGX1; 12.5 uM): −0.1
- Antagonism (V2; 10 uM): 2.9
- Agonism (V2; 12.5 uM): 0.6
